Results: patent US7960374B2, “Tricyclic compounds, compositions, and methods useful in the treatment or prophylaxis of 5-HT6 receptor-related disorders” (Proximagen Limited, priority 2006, dated 2011)

Legend:
human 5-HT6 receptor [1] = molecular target: T1, human 5-HT6 receptor (Homo sapiens, UniProt P50406); test: 5-HT6 receptor binding assay ([3H]-LSD, SPA); conditions: for Ki: [3H]-LSD as labeled ligand, membranes of HEK293 cells expressing human 5-HT6, read-out: Binding affinity (Ki) at the human 5-HT6 receptor
T1 construct: expressed in transfected cells; host or cells: HEK293

human 5-HT6 receptor [2] = molecular target: T1, human 5-HT6 receptor; test: 5-HT6 intrinsic activity assay (inhibition of 5-HT induced increase in cAMP); format: cell-based; conditions: read-out: Antagonist potency at the human 5-HT6 receptor, fKi (= IC50,corr)
Procedure: (b) 5-HT6 Intrinsic Activity Assay
Briefly, HEK293/5-HT6 cells were seeded in polylysine coated 96-well plates at a density of 25,000/well and grown in DMEM (Dulbecco's Modified Eagle Medium) (without phenol-red) containing 5% dialyzed Foetal Bovine Serum for 48 h at 37° C. in a 5% CO2 incubator. The medium was then aspirated and replaced by 0.1 ml assay medium (Hanks Balance Salt Solution containing 20 mM HEPES, 1.5 mM isobutylmethylxanthine and 1 mg/ml bovine serum albumin). After addition of test substances, 50 μl dissolved in assay medium, the cells were incubated for 10 min at 37° C. in a 5% CO2 incubator. The medium was again aspirated and the cAMP content was determined using a radioactive cAMP kit (Amersham Pharmacia Biotech, BIOTRAK RPA559).

T1 sequence (P50406 whole entry): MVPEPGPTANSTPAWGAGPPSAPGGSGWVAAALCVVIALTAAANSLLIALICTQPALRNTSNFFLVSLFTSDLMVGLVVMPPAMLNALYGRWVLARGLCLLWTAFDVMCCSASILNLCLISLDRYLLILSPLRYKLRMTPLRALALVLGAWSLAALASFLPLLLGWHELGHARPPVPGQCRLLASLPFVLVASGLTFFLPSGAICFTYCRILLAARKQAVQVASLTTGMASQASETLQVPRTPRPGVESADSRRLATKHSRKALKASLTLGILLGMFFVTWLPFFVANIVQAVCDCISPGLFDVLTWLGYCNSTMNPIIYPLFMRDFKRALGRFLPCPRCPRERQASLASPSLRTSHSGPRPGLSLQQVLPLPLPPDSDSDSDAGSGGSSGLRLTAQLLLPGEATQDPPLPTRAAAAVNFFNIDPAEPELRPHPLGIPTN

SMILES	Ki (human 5-HT6 receptor [1]) [nM]	IC50 (human 5-HT6 receptor [2]) [nM]	Hill coefficient (human 5-HT6 receptor [1]; three experiments)
CN1CCOc2ccc3c(ccn3S(=O)(=O)c3ccccc3)c2C1 [Example 5, 2-Methyl-8-(phenylsulfonyl)-1,3,4,8-tetrahydro-2H-[1,4]oxazepino[6,7-e]indole]	2	3	
NCCc1c[nH]c2ccc(O)cc12 [Example 5-HT, 5-hydroxytryptamine, reference compound]			0.94 (SD 0.09)
CN1CCOc2ccc3c(ccn3S(=O)(=O)c3ccc4ncsc4c3)c2C1 [Example 10, 8-(1,3-Benzothiazol-6-ylsulfonyl)-2-methyl-1,3,4,8-tetrahydro-2H-[1,4]oxazepino[6,7-e]indole]	1	1	
O=S(=O)(c1ccccc1)n1ccc2c3c(ccc21)OCCNC3 [Example 49, 8-(Phenylsulfonyl)-1,3,4,8-tetrahydro-2H-[1,4]oxazepino[6,7-e]indole]	2	5	
